The values below come from patent publication US9522935B2, “Commands and method of treating cancer via RHO pathway” (priority 2013, dated 2016).

For test [1], the system named is HepG2 cells. Kind of test: Nude mouse model of hepatocellular carcinoma (HepG2), growth rate. Particulars: nude mouse model, 75 mg/kg, twice a day, versus blank carrier control. Format: in vivo, nude mice. As to the method:
In contrast, LD30 (1 mg/kg/time, twice a day) reduced the growth rate of HepG2 cells by about 63%, with statistical significance (p<0.05) when compared with the ethanol control.
LD030 was also compared with Nexavar for their effects on the growth rate of HepG2 cells.
A further study was conducted on liver cancer cell line in nude mice (HepG2), where Nexavar's dosage was 30 mg/kg, twice a day and LD030's dosage was 1 mg/kg, twice a day along with a blank control and a combination of LD030 and Nexavar. The result is shown in FIG. 21 where Nr stands for Nexavar. […] When compared with the blank, LD030's effect is statistically significant (p<0.05).

For test [2], the system named is pancreatic cancer cell lines. Briefly: Nude mouse model of pancreatic cancer (xenograft), tumor size. Particulars: 43 days. It counts as in vivo, NOD/SCID mice. How it is done: Two strains of pancreatic cancer cell lines were selected to be grafted to nonobese diabetic/severe combined immunodeficient (NOD/SCID) mice, and the tumor was inoculated in mouse ventral sides. About two weeks, they were used as a nude mouse model of pancreatic cancer. […] Each of the above groups. The treatment continued for 43 days (gemcitabine alone group 2 times a week; other groups 3 times a week), and then tumor size was recorded as shown in FIG. 16. […] Further experiments were conducted to study the effects of the combinational use of LD030 with gemcitabine as compared being used alone on tumor inhibition. Four treatment groups were set up: (a) blank control, (2) gemcitabine (25 mg/kg/time, 2 times a week), (3) LD030 (0.5 mg/kg/time, 3 times a week), (4) LD030 (0.5 mg/kg/time, 3 times a week) together with gemcitabine (25 mg/kg/time, 2 times a week).

In the next test the test system is Panc1 cells. Kind of test: MTT assay, compounds related to LD030 on Panc1 cells. It counts as cell-based, human. Particulars: Homo sapiens, PANC-1, 48 hours, read-out: Effects on Panc1 Cells (inhibitory percentage). As to the method:
(§1) MTT assay was used to detect cell viability after being treated with different compounds of the present invention related to LD030. The cell lines treated were on non-small lung cancer cell line A549, HepG2 cells and Panc1 cells.
(§2) MTT preservation solution preparation: 0.5 g MTT was dissolved in 100 ml of phosphate buffer solution (PBS), and bacteria contaminates were removed with a 0.22 μm membrane filter to obtain 0.5% MTT solution, which was stored in the dark at −20° C.
(§3) MTT working solution preparation: MTT preservation solution was diluted 10 times with sterile PBS to obtain MTT working solution.
(§4) 1640 complete medium preparation: 1640 base medium was added with an amount of fetal bovine serum (FBS) so that the medium contains 10% FBS by volume. Then an amount of double-antibody (i.e., penicillin and streptomycin) was added to make final concentration of penicillin at 100 units/ml and streptomycin at 100 ug/ml.
(§5) The experimental procedure is as follows:
(§6) (1) Take trypsin digested logarithmic phase cells and adjust the concentration of the cell suspension to 6×10^4 cell/ml, and then add 100 ul suspension of the cells under the test to each well on a 96-well plate and adjusted to a density of 6000 cells/well. The edge orifice is filled with sterile PBS.
(§7) (2) Placed the 96-well plate into a 37° C. incubator with 5% CO2 and incubate it overnight.
(§8) (3) Dissolve the test compounds in 200 ul DMSO to get a 5 mg/ml solution and dilute it to get 100 uM, 10 uM, 1 uM and 0.1 uM solutions. Add 100 ul of a solution to each of three repeat wells. Set a control well which has cells but without the compound of the present invention and a blank cell which contains no cells.
(§9) (4) Put the 96-well plate into a 37° C. incubator with 5% CO2 and incubate it for 48 hours. Examine the cells daily under a microscope.
(§10) (5) After being cultured for 48 hours, centrifuge and discard the culture liquid. Add 100 ul MTT working solution to each well, and continue incubating for 4 h.
(§11) (6) Terminate the culture, and carefully remove the culture medium. Then add 100 ul DMSO to each well and shake it at a low speed in a shaker for 10 min to make all crystals fully dissolved. The absorbance value of each well was measured by an enzyme-linked immunosorbent detector at the OD570 nm, and the inhibition rate of the different compounds with different concentration on cell growth can be obtained.

For test [3], the system named is HepG2 cells. Briefly: MTT assay, compounds related to LD030 on HepG2 cells. Format: cell-based, human. The note with it: Homo sapiens, HepG2, 48 hours, read-out: Effects on HepG2 Cells (inhibitory percentage). How it is done:
as §1, §2, §3, §4, §5, §6, §7, §8, §9, §10, §11

Test [4] has as its system non-small lung cancer cell line A549. Kind of test: MTT assay, compounds related to LD030 on A549 cells. It counts as cell-based. The note with it: Homo sapiens, A549, 48 hours, read-out: Effects on A549 Cells (inhibitory percentage). As to the method:
as §1, §2, §3, §4, §5, §6, §7, §8, §9, §10, §11
(In general: Tetrazolium dyes change colour on reduction, which living cells bring about.)

With `CNC(=O)c1cc(Oc2ccc(NC(=O)Nc3ccc(Cl)c(C(F)(F)F)c3)cc2)ccn1` [Nexavar, reference compound], in the test on HepG2 cells [1], the “reduction of growth rate of HepG2 cells” value was “about 80%”.
As to `Nc1ccn([C@@H]2O[C@H](CO)[C@@H](O)C2(F)F)c(=O)n1` [gemcitabine, reference compound], the tumor volume reduced in test [2] (25 mg/kg/time gemcitabine, FIG. 15) stood at 37%. Further, the tumor size reduced in test [2] (gemcitabine 25 mg/kg/time, 2 times a week, FIG. 17) came to 37%.
As to `CC(=O)O[C@H]1CC[C@]2(C)C3=C(CC[C@H]2C1(C)C)[C@]1(C)CCC(C(C)CCC(O)C(C)(C)O)[C@@]1(C)CC3` (stereo partly drawn) [LD 021], the inhibition at 0.1 µM in the test on Panc1 cells (0.1 μM) was -12.6%; in the test on HepG2 cells [3] (0.1 μM), 12.7%; in test [4] (0.1 μM), 3.13%. For the same compound, the inhibition at 1 µM was -4.96% in the test on Panc1 cells (1 μM), 13.1% in the test with HepG2 cells [3] (1 μM) and 1.31% in test [4] (1 μM). Moreover, the inhibition at 10 µM in the test with Panc1 cells (10 μM) was found to be 2.16%; in the test with HepG2 cells [3] (10 μM), 12.7%; in test [4] (10 μM), 1.53%. Further, the inhibition at 100 µM came out at 48.8% in the test with Panc1 cells (100 μM), 24.6% in the test on HepG2 cells [3] (100 μM) and 45.5% in test [4] (100 μM).
